# Literature values in patent publication US20080213414A1, “Compositions containing phaseolus vulgaris extract and alpinia officinarum extract for the prevention and treatment of obesity and type II diabetes” (priority 2005, published 2008).
# How the values were obtained:
# pancreatic lipase = molecular target: T1, pancreatic lipase (Homo sapiens, UniProt P16233)
# T1 sequence (P16233 17-465): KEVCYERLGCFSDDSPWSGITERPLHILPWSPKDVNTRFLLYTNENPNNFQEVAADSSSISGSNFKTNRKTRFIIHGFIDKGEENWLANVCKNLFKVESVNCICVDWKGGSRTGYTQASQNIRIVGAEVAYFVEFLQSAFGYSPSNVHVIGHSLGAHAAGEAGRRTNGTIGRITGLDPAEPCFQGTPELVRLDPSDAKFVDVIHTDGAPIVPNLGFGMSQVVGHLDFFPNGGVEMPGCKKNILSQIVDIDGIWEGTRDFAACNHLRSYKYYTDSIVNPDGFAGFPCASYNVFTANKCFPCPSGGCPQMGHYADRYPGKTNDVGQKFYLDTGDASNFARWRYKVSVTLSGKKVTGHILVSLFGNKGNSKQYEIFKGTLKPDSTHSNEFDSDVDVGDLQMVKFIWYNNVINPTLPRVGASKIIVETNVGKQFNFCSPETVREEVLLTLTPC
# [1] = without gastroprotection
structure (smiles),measurement,setting,value
COc1c(-c2ccccc2)oc2cc(O)cc(O)c2c1=O [3-methylethergalangin],"IC50, inhibition of pancreatic lipase",pancreatic lipase,around 1 mg/ml
same,stability to the gastric juices,[1],not broken down by the gastric juices
